Laboratory results: PubChem BioAssay AID1648 (Sanford-Burnham Center for Chemical Genomics, 2009)
Active and inactive are the calls of the source. The rule behind the calls is not given here.

These compounds were tested against Serine/threonine-protein kinase mTOR (Homo sapiens) (UniProt P42345) (assay: mTOR FRB domain ligand binding – biophysical, NMR (AID 1648)). Settings: NMR binding to FRB domain, chemical shift.
Serine/threonine-protein kinase mTOR (Homo sapiens), sequence (P42345 2015-2114): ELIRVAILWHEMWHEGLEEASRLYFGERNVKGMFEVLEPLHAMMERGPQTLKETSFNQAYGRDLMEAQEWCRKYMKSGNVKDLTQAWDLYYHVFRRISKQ

| Structure (SMILES) | Kd |
| --- | --- |
| O=C(O)CCC(=O)c1c[nH]c2ccccc12 | > 4 mM (inactive) |
| COc1c(F)c(F)c(-c2csc(N)n2)c(F)c1F | > 4 mM (inactive) |
| O=C(O)c1ccccc1C(=O)Nc1ccccc1 | > 4 mM (inactive) |
| NC(=O)C1CCN(C(=O)CN2CCc3ccccc32)CC1 | > 4 mM (inactive) |
| Cc1nc2ccccc2c(=O)n1CCCO | > 4 mM (inactive) |
| O=C(O)CSc1nc2ccccc2c(=O)[nH]1 | > 4 mM (inactive) |
| O=C(NN1C(=O)C2C3C=CC(C3)C2C1=O)C1CC=CCC1 (centres undefined) | > 4 mM (inactive) |
| CN1CCN(C(=O)Nc2cccc3ccccc23)CC1 | > 4 mM (inactive) |
| Cc1ccc(C)n1/N=C1\NC(=O)CS1 | > 4 mM (inactive) |
| COC(=O)c1ccc2nccnc2c1 | > 4 mM (inactive) |
| Cc1nnc(SCC(=O)Nc2ccccc2)[nH]c1=O | > 4 mM (inactive) |
| Nc1cccc(-n2cccc2)c1 | > 4 mM (inactive) |
| NC(=O)COc1ccccc1O | > 4 mM (inactive) |
| CCc1ccccc1OCc1nnc(N)s1 | > 4 mM (inactive) |
| Cc1ccnc(NS(=O)(=O)c2cccs2)c1 | > 4 mM (inactive) |
| O=C(O)CC1Sc2ccccc2NC1=O (centres undefined) | > 4 mM (inactive) |
| CC(=O)Nc1cccc(-c2nc3ccccc3c(=O)o2)c1 | > 4 mM (inactive) |
| NC(=O)c1ccc(N2C(=O)C=CC2=O)cc1Cl | > 4 mM (inactive) |
| C=CC(C1=CC(=O)C=CC1=O)c1ccccc1 (centres undefined) | > 4 mM (inactive) |
| NC(=O)c1cccc2c(=O)oc3ccccc3c12 | > 4 mM (inactive) |
| C=C1C2=CC(=O)O[C@@H](c3ccoc3)[C@]2(C)CCC1[C@@]1(C)C=CC(=O)C(C)(C)[C@@H]1CC(=O)OC (some centres undefined) | > 4 mM (inactive) |
| COc1c2c(cc3cc[n+](C)cc13)OCO2 | > 4 mM (inactive) |
| O=C(c1cnsn1)N1CCN(c2ccccn2)CC1 | > 4 mM (inactive) |
| Cc1ccc(/C=C2/C(=O)N=C(N)N2C)s1 | > 4 mM (inactive) |

| Structure (SMILES) | Kd |
| --- | --- |
| O=C(c1ccccc1F)N1CCN(c2ccccc2)CC1 | > 4 mM (inactive) |
| Cc1nnc(NCCN2CCOCC2)[nH]c1=O | > 4 mM (inactive) |
| OC1CCC(C(F)(F)F)CC1 (centres undefined) | > 4 mM (inactive) |
| COC(=O)c1c(C)cc(OC(=O)c2c(C)cc(O)c(C=O)c2O)c(C)c1O | > 4 mM (inactive) |
| CC12OC(=O)CC3C(C)(C)[C@H](O)C=C[C@]3(C)C1CC[C@]1(C)C2=CC(=O)O[C@H]1c1ccoc1 (some centres undefined) | > 4 mM (inactive) |
| O=C(CCc1ccc(O)cc1)c1c(O)cc(O)cc1O[C@@H]1O[C@H](CO)[C@@H](O)[C@H](O)[C@H]1O | > 4 mM (inactive) |
| O=C(Nc1ccccc1)Nc1ccccn1 | > 4 mM (inactive) |
| CCCc1ncc(C(O)c2cccc3ccccc23)n1C (centres undefined) | > 4 mM (inactive) |
| Cc1ncc(C(=O)O)c(-c2ccccc2)n1 | > 4 mM (inactive) |
| Cc1cc(N2C(=O)CCC2=O)n(-c2ccccc2)n1 | > 4 mM (inactive) |
| COC(=O)c1c(OC)cc2c(c1C)Oc1c(Cl)c(OC(C)=O)c(Cl)c(C)c1C(=O)O2 | > 4 mM (inactive) |
| O=C(O)c1cn(-c2ccccc2)nc1-c1cccnc1 | > 4 mM (inactive) |
| O=C(O)c1ccc2occc2c1 | > 4 mM (inactive) |
| CC(=O)Nc1cc2c(cc1C(=O)C(C)C)OCCO2 | > 4 mM (inactive) |
| O=C(O)c1ccc2[nH]c3c(c2c1)CSCC3 | > 4 mM (inactive) |
| C[C@@H]1CC[C@H]2[C@@H](C)C(=O)O[C@@H]3OC4(C)CC[C@@H]1[C@]32OO4 | > 4 mM (inactive) |
| Cc1c(N=Cc2ccco2)c(=O)n(-c2ccccc2)n1C | > 4 mM (inactive) |
| Cc1ccc(N)nc1 | > 4 mM (inactive) |
| CC1(c2ccncc2)NC(=O)NC1=O (centres undefined) | > 4 mM (inactive) |
| CNC(=O)c1cccc(NC(=S)NC)c1 | > 4 mM (inactive) |
| Cn1cnc2nc3n(c2c1=O)CCC3 | > 4 mM (inactive) |
| CC(=O)Nc1sccc1C(N)=O | > 4 mM (inactive) |
| NC(=O)Cn1nc(-c2ccc(F)cc2)ccc1=O | > 4 mM (inactive) |
| O=C(NCc1cccs1)c1ccncc1 | > 4 mM (inactive) |

| Structure (SMILES) | Kd |
| --- | --- |
| Cc1cc(C(=O)NN2CCOCC2)c(C)o1 | > 4 mM (inactive) |
| CSc1nc(-c2ccco2)nn1S(C)(=O)=O | > 4 mM (inactive) |
| Cn1c(=O)c2[nH]cnc2n(-c2ccccc2)c1=O | > 4 mM (inactive) |
| O=C(O)c1ccc(N2CCOCC2)cc1 | > 4 mM (inactive) |
| COC1(C)CCC2OC2(C)CCC2C1CC2(C)C (centres undefined) | > 4 mM (inactive) |
| COc1cc([C@H]2Oc3cc([C@H]4Oc5cc(O)cc(O)c5C(=O)[C@@H]4O)ccc3O[C@@H]2CO)ccc1O | > 4 mM (inactive) |
| Cc1cc(=O)oc2c1c(C)nn2CN1CCN(C)CC1 | > 4 mM (inactive) |
| Cc1ccc(C)c(S(=O)(=O)NCc2cccnc2)c1 | > 4 mM (inactive) |
| COC(=O)c1cc(-c2c[nH]c3ccccc23)n[nH]1 | > 4 mM (inactive) |
| COc1cc2[nH]c(=S)n(C)c(=O)c2cc1OC | > 4 mM (inactive) |
| COc1cc2c(cc1OC)[C@@H]1C(=O)c3ccc(OC)c(CC=C(C)C)c3O[C@@H]1CO2 | > 4 mM (inactive) |
| CCCSc1nnc2[nH]c(=O)cc(N)n12 | > 4 mM (inactive) |
| Cc1cccc(NS(=O)(=O)c2cccs2)n1 | > 4 mM (inactive) |
| COc1cccc2c(=O)n(CC(N)=O)ccc12 | > 4 mM (inactive) |
| COc1ccc(C(=O)CC(=O)O)c2c1C=CC(C)(C)O2 | > 4 mM (inactive) |
| COc1nc(-c2ccccc2)ccc1-c1noc(C)n1 | > 4 mM (inactive) |
| CC(=O)O[C@@H]1CC2C(C)(C)C(=O)C3OC3[C@]2(C)C2CC[C@@]3(C)[C@H](c4ccoc4)OC(=O)C4OC43[C@@]21C (some centres undefined) | > 4 mM (inactive) |
| O=C(O)c1ccc(N2CCCCC2)cc1 | > 4 mM (inactive) |
| NC(=O)c1oc2ccccc2c1N | > 4 mM (inactive) |
| C=C[C@](C)(O)CCC=C(C)C | > 4 mM (inactive) |
| S=c1nc2c(n[nH]1)[nH]c1ccccc12 | > 4 mM (inactive) |
| CC12CC[C@H](CC1=O)C2(C)C | > 4 mM (inactive) |
| CCN1CCc2c(sc(N)c2C(N)=O)C1 | > 4 mM (inactive) |
| O=C(O)CCN1CCOCC1 | > 4 mM (inactive) |

| Structure (SMILES) | Kd |
| --- | --- |
| COc1c2c(c(CC=C(C)C)c3oc(=O)c(-c4ccc(O)cc4)c(O)c13)OC(C)(C)C=C2 | > 4 mM (inactive) |
| O=S(=O)(O)c1nc2ccccc2[nH]1 | > 4 mM (inactive) |
| Cn1nnc2cc(C(=O)NC3CCCCC3)ccc21 | > 4 mM (inactive) |
| O=C1CSC2(CN3CCC2CC3)N1 (centres undefined) | > 4 mM (inactive) |
| O=C(/C=C1\SC(=O)NC1=O)NCc1ccccc1 | > 4 mM (inactive) |
| c1coc(-c2nc(-c3ccncc3)no2)c1 | > 4 mM (inactive) |
| CC(O)C(=O)N/N=C/c1cccs1 (centres undefined) | > 4 mM (inactive) |
| CC(C)(C)C(=O)Nc1nnc(SCC(N)=O)s1 | > 4 mM (inactive) |
| CNc1nc(N)c(C(=O)C(C)(C)C)s1 | > 4 mM (inactive) |
| O=C(O)C12CC3CC(CC(O)(C3)C1)C2 | > 4 mM (inactive) |
| Cc1c(C(=O)Nn2cnnc2)oc2ccccc12 | > 4 mM (inactive) |
| Cc1ccccc1N1C(=O)CC(=O)NC1=O | > 4 mM (inactive) |
| CC(C)c1c(O)c(-c2cc3c(c(C(C)C)c2O)CCC2C(C)(C)CCC[C@]32C)cc2c1CCC1C(C)(C)CCC[C@]21C (some centres undefined) | > 4 mM (inactive) |
| CN(C)C(=O)Oc1cccc(-c2nnco2)c1 | > 4 mM (inactive) |
| CC(C)NC(=O)c1cc(-n2cnnc2)ccc1Cl | > 4 mM (inactive) |
| CCC1=Nc2ccccc2-c2nnc(SC)nc2O1 | > 4 mM (inactive) |
| Cc1ncc(CC(=O)O)s1 | > 4 mM (inactive) |
| Cc1cc(C(=O)Nc2sc(C)c(C)c2C#N)no1 | > 4 mM (inactive) |
| N#CCSc1nnc2ccc3ccccc3n12 | > 4 mM (inactive) |
| COC(=O)C[C@H]1C(C)(C)C(=O)[C@@H]2CC3=C(CC[C@]4(C)C3=CC(=O)O[C@H]4c3ccoc3)C1(C)C2=O | > 4 mM (inactive) |
| Cc1cc(=O)cc(C)n1-c1ccccc1N | > 4 mM (inactive) |
| CN1CCN(CC(=O)NC2CCCCC2)CC1 | > 4 mM (inactive) |
| COC1=CC(=O)C(O)=C/C1=C\C=C\c1ccccc1 | > 4 mM (inactive) |
| c1ccc2[nH]c(NCCN3CCOCC3)nc2c1 | > 4 mM (inactive) |

| Structure (SMILES) | Kd |
| --- | --- |
| CS(=O)(=O)Cc1ccccc1 | > 4 mM (inactive) |
| O=C(NCc1cccs1)c1nc2ncccn2n1 | > 4 mM (inactive) |
| COc1ccc(C(=O)O)cc1OC | > 4 mM (inactive) |
| Cn1c(NCC(=O)O)nc2c1c(=O)[nH]c(=O)n2C | > 4 mM (inactive) |
| Cn1cc(C(=O)N/N=C/c2ccccc2)ccc1=O | > 4 mM (inactive) |
| CSc1ccccc1NC(=O)c1ccco1 | > 4 mM (inactive) |
| COc1ccc(-c2nc(N)n(C(C)=O)n2)cc1 | > 4 mM (inactive) |
| CN1C2C[C@H](OC(=O)[C@H](CO)c3ccccc3)C[C@H]1[C@@H](O)C2 | > 4 mM (inactive) |
| Cc1cc(C(F)(F)F)nn1CC(N)=O | > 4 mM (inactive) |
| CCN1CCC2(CC1)CC1CC3C=CC1(CN2C(C)=O)O3 (centres undefined) | > 4 mM (inactive) |
| O=C(O)C1C(=O)NCC1c1ccccc1 (centres undefined) | > 4 mM (inactive) |
| COc1cc(NC(=O)c2ccccc2)c(C)cc1N | > 4 mM (inactive) |
| CC1=NN(c2ccc(C)cc2)C(=O)C1 | > 4 mM (inactive) |
| CSCCNC(C)=O | > 4 mM (inactive) |
| CN1CCC(N2CCCC(C(N)=O)C2)CC1 (centres undefined) | > 4 mM (inactive) |
| O=C1C[C@@H](c2ccccc2)Oc2cc(O)cc(O)c21 | > 4 mM (inactive) |
| C=C1C(N)CC2CC1C2(C)C (centres undefined) | > 4 mM (inactive) |
| Cc1noc(C)c1C(=O)NCc1ccco1 | > 4 mM (inactive) |
| O=C1NC(=S)NC(=O)C1=Cc1ccncc1 | > 4 mM (inactive) |
| C=CC(C1=CC(=O)C(OC)=CC1=O)c1ccc(O)cc1 (centres undefined) | > 4 mM (inactive) |
| N=c1n(N)c2ccccc2n1CCO | > 4 mM (inactive) |
| CCSc1nnc2[nH]c(=O)cc(C)n12 | > 4 mM (inactive) |
| O=C(O)CC1NCCNC1=O (centres undefined) | > 4 mM (inactive) |
